Experimental data: ChEMBL document CHEMBL3638467, “Aminomethyl quinolone compounds” (2013)

Target: Mitogen-activated protein kinase 8 (Homo sapiens, UniProt P45983)
Assay: In Vitro Enzyme Assay: In vitro JNK1 assay.

Sequence of Mitogen-activated protein kinase 8 (P45983 whole entry): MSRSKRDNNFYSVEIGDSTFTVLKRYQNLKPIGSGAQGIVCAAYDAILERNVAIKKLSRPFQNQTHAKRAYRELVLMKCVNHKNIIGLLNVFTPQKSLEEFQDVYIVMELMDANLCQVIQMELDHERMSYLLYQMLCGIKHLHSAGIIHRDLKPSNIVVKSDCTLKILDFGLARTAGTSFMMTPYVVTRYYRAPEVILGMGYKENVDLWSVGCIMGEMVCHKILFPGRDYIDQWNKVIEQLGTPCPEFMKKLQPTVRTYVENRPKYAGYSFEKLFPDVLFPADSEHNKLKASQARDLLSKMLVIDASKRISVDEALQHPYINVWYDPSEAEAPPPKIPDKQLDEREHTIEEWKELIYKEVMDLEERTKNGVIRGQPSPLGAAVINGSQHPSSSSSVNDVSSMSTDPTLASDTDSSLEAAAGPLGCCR

IC50 | SMILES
40 nM | O=C(NCc1cn(-c2ccccc2F)c2cc(F)ccc2c1=O)c1cnn(-c2ccccc2)c1
220 nM | CC(C)(O)CNC(=O)c1ccc(C(=O)NCc2cn(-c3ccccc3)c3cc(Cl)ccc3c2=O)cc1
8 nM | COC(=O)c1c(CNC(=O)c2cnc(N3CCOCC3)s2)c(=O)c2ccc(Cl)cc2n1-c1ccccc1
